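These data come from cells grown in 96-well plates and exposed to compound for 48 hours at five concentrations. TGI marks complete inhibition of growth.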
What was measured:
Assay in all cases: NCI tumour cell line growth inhibition, 48 h
786-0 renal = tested on: 786-0 renal
A549 NSCLC = tested on: A549 NSCLC
ACHN renal = tested on: ACHN renal
BT-549 breast = tested on: BT-549 breast
CAKI-1 renal = tested on: CAKI-1 renal
COLO 205 colon = tested on: COLO 205 colon
DU-145 prostate = tested on: DU-145 prostate
EKVX NSCLC = tested on: EKVX NSCLC
HCC-2998 colon = tested on: HCC-2998 colon
HCT-116 colon = tested on: HCT-116 colon
HCT-15 colon = tested on: HCT-15 colon
HL-60(TB) leukemia = tested on: HL-60(TB) leukemia
HOP-62 NSCLC = tested on: HOP-62 NSCLC
HS 578T breast = tested on: HS 578T breast
HT29 colon = tested on: HT29 colon
IGROV1 ovarian = tested on: IGROV1 ovarian
K-562 leukemia = tested on: K-562 leukemia
KM12 colon = tested on: KM12 colon
LOX IMVI melanoma = tested on: LOX IMVI melanoma
M14 melanoma = tested on: M14 melanoma
MALME-3M melanoma = tested on: MALME-3M melanoma
MCF7 breast = tested on: MCF7 breast
MDA-MB-231 breast = tested on: MDA-MB-231 breast
MDA-MB-435 = tested on: MDA-MB-435
MDA-N = tested on: MDA-N
MOLT-4 leukemia = tested on: MOLT-4 leukemia
NCI-H226 lung = tested on: NCI-H226 lung
NCI-H23 lung = tested on: NCI-H23 lung
NCI-H460 lung = tested on: NCI-H460 lung
NCI-H522 lung = tested on: NCI-H522 lung
NCI/ADR-RES ovarian = tested on: NCI/ADR-RES ovarian
OVCAR-3 ovarian = tested on: OVCAR-3 ovarian
OVCAR-4 ovarian = tested on: OVCAR-4 ovarian
OVCAR-5 ovarian = tested on: OVCAR-5 ovarian
OVCAR-8 ovarian = tested on: OVCAR-8 ovarian
PC-3 prostate = tested on: PC-3 prostate
RPMI-8226 leukemia = tested on: RPMI-8226 leukemia
RXF 393 renal = tested on: RXF 393 renal
SF-268 CNS = tested on: SF-268 CNS
SF-295 CNS = tested on: SF-295 CNS
SF-539 CNS = tested on: SF-539 CNS
SK-MEL-2 melanoma = tested on: SK-MEL-2 melanoma
SK-MEL-5 melanoma = tested on: SK-MEL-5 melanoma
SK-OV-3 ovarian = tested on: SK-OV-3 ovarian
SN12C renal = tested on: SN12C renal
SNB-19 CNS = tested on: SNB-19 CNS
SR leukemia = tested on: SR leukemia
SW-620 colon = tested on: SW-620 colon
T-47D breast = tested on: T-47D breast
TK-10 renal = tested on: TK-10 renal
U251 CNS = tested on: U251 CNS
UACC-257 melanoma = tested on: UACC-257 melanoma
UACC-62 melanoma = tested on: UACC-62 melanoma
UO-31 renal = tested on: UO-31 renal

Cc1ccc(O)c(-c2cc(-c3cccc(Br)c3)c(C#N)c(N)n2)c1
TGI (786-0 renal): > 100 µM
TGI (A549 NSCLC): 87.1 µM
TGI (ACHN renal): 49.3 µM
TGI (BT-549 breast): > 100 µM
TGI (CAKI-1 renal): 75.6 µM
TGI (COLO 205 colon): 34.2 µM
TGI (DU-145 prostate): > 100 µM
TGI (EKVX NSCLC): 65.5 µM
TGI (HCC-2998 colon): 48.6 µM
TGI (HCT-116 colon): 42.4 µM
TGI (HCT-15 colon): 30.6 µM
TGI (HL-60(TB) leukemia): 72 µM
TGI (HOP-62 NSCLC): > 100 µM
TGI (HS 578T breast): 62.8 µM
TGI (HT29 colon): 54.7 µM
TGI (IGROV1 ovarian): 50.9 µM
TGI (K-562 leukemia): 57.3 µM
TGI (KM12 colon): 58.9 µM
TGI (LOX IMVI melanoma): 31.1 µM
TGI (M14 melanoma): 89.2 µM
TGI (MALME-3M melanoma): 63.1 µM
TGI (MCF7 breast): 92 µM
TGI (MDA-MB-231 breast): 52.7 µM
TGI (MDA-MB-435): 39.8 µM
TGI (MDA-N): 79.6 µM
TGI (MOLT-4 leukemia): 77.1 µM
TGI (NCI-H226 lung): 44.1 µM
TGI (NCI-H23 lung): > 100 µM
TGI (NCI-H460 lung): 55.7 µM
TGI (NCI-H522 lung): 47.8 µM
TGI (NCI/ADR-RES ovarian): > 100 µM
TGI (OVCAR-3 ovarian): > 100 µM
TGI (OVCAR-4 ovarian): 22.5 µM
TGI (OVCAR-5 ovarian): > 100 µM
TGI (OVCAR-8 ovarian): > 100 µM
TGI (PC-3 prostate): 55.6 µM
TGI (RPMI-8226 leukemia): 28 µM
TGI (RXF 393 renal): 62.5 µM
TGI (SF-268 CNS): > 100 µM
TGI (SF-295 CNS): 54.2 µM
TGI (SF-539 CNS): 75.5 µM
TGI (SK-MEL-2 melanoma): 51.6 µM
TGI (SK-MEL-5 melanoma): 60 µM
TGI (SK-OV-3 ovarian): 87.3 µM
TGI (SN12C renal): 49.7 µM
TGI (SNB-19 CNS): 45.7 µM
TGI (SR leukemia): 46.8 µM
TGI (SW-620 colon): 89.8 µM
TGI (T-47D breast): 76.2 µM
TGI (TK-10 renal): 40.2 µM
TGI (U251 CNS): 35.3 µM
TGI (UACC-257 melanoma): 52 µM
TGI (UACC-62 melanoma): 37.4 µM
TGI (UO-31 renal): 72.7 µM

Source: PubChem BioAssay (NCI)
